Measured values published in article PMC5562778 (Archives of Toxicology, 2017).
Where two headings read alike, the source gives them in different places.

Legend:
[1] = tested on: Chinese liver microsomes; test: Microsomal conversion of estragole by Chinese liver microsomes (NADPH); conditions: for Catalytic efficiency (scaled V max / K m) / Scaled V max: formation from estragole, Chinese; for Scaled V max: scaled with microsomal protein yield 35 mg/(g tissue); for Catalytic efficiency (V max/K m × 1000) / K m / V max: formation of the metabolite from estragole, Chinese liver microsomes; for K m / V max: average ± SEM; for Catalytic efficiency for formation of the metabolite, lower in Chinese than in Caucasian samples / V max for formation of the metabolite, lower in Chinese than in Caucasian samples: in vitro, liver microsomes
Method: (§1) The incubation mixtures contained (final concentrations) 3 mM NADPH and 1 mg/mL microsomal protein in 0.2 M Tris–HCl (pH 7.4). Incubations were performed for 10 min at substrate concentrations ranging from 25 to 1000 μM, after which the reaction was terminated by adding 25 μL ice-cold acetonitrile. Blank incubations were performed in the absence of the cofactor NADPH. All incubations were performed in triplicate. In the supporting materials 2, detailed information can be found (Table S1 can be used to keep track of detailed information).
(§2) Before UPLC analysis, all samples were centrifuged for 5 min at 16,000 g to precipitate microsomal proteins. Supernatant of each sample was analyzed on UPLC using a BEH C18 (1.7 μm, 2.1 × 50 mm) column with a guard column and a diode array detector (Acquity, Waters). […] Table S1 can be used to keep track of detailed information.
(§3) The apparent maximum velocity (V max) and the apparent Michaelis–Menten constant (K m) were determined by fitting the data to this equation using GraphPad Prism version 5.0 (GraphPad software, San Diego California USA).
(§4) The incubation mixtures contained (final concentrations) 3 mM NADPH and 1 mg/ml microsomal protein in 0.2 M Tris-HCl (pH 7.4). […] Incubations were performed for 10 min at substrate concentrations ranging from 25 to 1000 μM, after which the reaction was terminated by adding 25 μl ice-cold acetonitrile. […] Blank incubations were performed in the absence of the cofactor NADPH. All incubations were performed in triplicate.
The flow rate was 0.6 ml/min and the gradient started with 100 % ultrapure water.

[2] = tested on: Caucasian liver microsomes; test: Microsomal conversion of estragole by Caucasian liver microsomes (NADPH); format: in vitro ADME, human; conditions: for Catalytic efficiency (scaled V max / K m) / Scaled V max: formation from estragole, Caucasian; for Catalytic efficiency (scaled V max / K m): scaled to liver; for Scaled V max: scaled with microsomal protein yield 35 mg/(g tissue); for Catalytic efficiency (V max/K m × 1000) / K m / V max: formation of the metabolite from estragole, Caucasian liver microsomes; for K m / V max: average ± SEM
Method: as §1
as §2, with “information. […] 3′-Hydroxyanethole was quantified by comparison of the peak areas of the metabolite in the chromatograms obtained at a wavelength of 206 nm to the calibration curve of the synthesized reference compound (Agharahimi and LeBel [1995]; Drinkwater et al. [1976]; Iyer et al. [2003]; Luo et al. [1992]).” for “information.”
as §3, §4
The flow rate was 0.6 ml/min and the gradient started with 100 % ultrapure water. After 1 min, the amount of acetonitrile was increased to 10 % and kept at that level for 1 min, after which the percentage of acetonitrile was increased to 35 % in 2.5 min and then increased to 100 % over 0.5 minute and kept at 100 % acetonitrile for another 1 min, and finally back to the starting conditions.

[3] = PBK prediction, ref Barter et al. [2013], cited from earlier work
[4] = ref Barter et al. [2013], cited from earlier work
[5] = tested on: Chinese liver S9; test: Oxidation of 1′-hydroxyestragole by Chinese liver S9 (NAD+, GSH trapping); format: in vitro ADME, human
Method: (§5) Mixed gender Chinese or Caucasian liver S9 was incubated with 1′-hydroxyestragole in the presence of NAD^+ and GSH, the latter added to trap the transient 1′-oxoestragole. Formation of the 1′-oxoestragole adducts with GSH forming GS-1′-oxoestragole reflects the formation of 1′-oxoestragole (Punt et al. [2009]). […] The reactions were terminated after 10 min by the addition of 25 μL ice-cold acetonitrile. Blank incubations were performed without cofactor NAD^+. All incubations were performed in triplicate.
(§6) Secondary metabolism of 1′-hydroxyestragole includes glucuronidation, oxidation, and sulfation. The gradient of analysis of the metabolites of 1′-hydroxyestragole can be found in supporting materials 2. Table S1 can be used to track more detailed information.
(§7) Identification of the GS-1′-oxoestragole which reflects the formation of 1′-oxoestragole was done by comparing the UV spectra and retention time of the formed GSH adduct to those of GS-1′-oxoestragole identified as described previously (Punt et al. [2009]). Quantification of the GSH conjugate of 1′-oxoestragole was achieved by comparing the peak area to the calibration curve of GS-1′-oxoestragole at a wavelength of 280 nm prepared as described previously by Punt et al. ([2009], [2016]). Briefly, the calibration curve of GS-1′-oxoestragole was prepared by incubating 40 μM 1′-oxoestragole with a range of GSH concentrations. The reactions were incubated for 4 h after which maximal formation of GS-1′-oxoestragole was previously shown to be reached (Punt et al. [2009]).
(§8) Mixed gender Chinese or Caucasian liver S9 was incubated with 1'-hydroxyestragole in the presence of NAD^+ and GSH, the latter added to trap the transient 1'-oxoestragole. Formation of the 1'-oxoestragole adducts with GSH forming GS-1'-oxoestragole reflects the formation of 1'-oxoestragole (Punt et al. 2009). […] The mixtures were pre-incubated for 1 min at 37 °C, after which the reactions were started by adding the substrate 1'-hydroxyestragole at concentrations ranging from 15 to 1000 μM added from 100 times concentrated stock solutions in DMSO. The reactions were terminated after 10 min by the addition of 25 μl ice-cold acetonitrile. Under these conditions, the formation of the GSH adduct of 1'-oxoestragole was linear with time and cytosolic protein concentration (Punt et al. 2009). Blank incubations were performed without cofactor NAD^+. All incubations were performed in triplicate.
(§9) The gradient for analysis of the metabolites contains a mixture of acetonitrile and 0.1 % TFA in ultrapure water with 0.6 ml/min flow rate.

[6] = tested on: Caucasian liver S9; test: Oxidation of 1′-hydroxyestragole by Caucasian liver S9 (NAD+, GSH trapping); format: in vitro ADME, human
Method: as §5, §6, §7, §8, §9

[7] = formation from 1′-hydroxyestragole (oxidation), Chinese liver S9
[8] = formation from 1′-hydroxyestragole (oxidation), Chinese liver S9, listed as 1′-oxoestragole
[9] = formation from 1′-hydroxyestragole (oxidation), Caucasian liver S9
[10] = formation from 1′-hydroxyestragole (oxidation), Caucasian liver S9, listed as 1′-oxoestragole

Structure (SMILES) | Catalytic efficiency (scaled V max / K m) ([1]; scaled to liver) [µL/h/g liver] | Scaled V max [1] [µmol/h/g liver] | Catalytic efficiency (V max/K m × 1000) [1] | K m [1] [µM] | V max [1] | Catalytic efficiency for formation of the metabolite, lower in Chinese than in Caucasian samples ([1]; conversion of estragole) [fold] | V max for formation of the metabolite, lower in Chinese than in Caucasian samples ([1]; conversion of estragole) [fold] | Catalytic efficiency (scaled V max / K m) [2] [µL/h/g liver] | Scaled V max [2] [µmol/h/g liver] | Catalytic efficiency (V max/K m × 1000) [2] | K m [2] [µM] | V max [2] | also measured
C=CCc1ccc(O)cc1 [4-Allylphenol] | 2.7 | 0.3 | 1.3 µL/min/mg microsomal or S9 protein | 115 ± 24 | 0.15 ± 0.01 nmol /min/mg microsomal or S9 protein | 1.8 | 5.0 | 5.0 | 1.6 | 2.4 µL/min/mg microsomal or S9 protein | 308 ± 71 | 0.74 ± 0.07 nmol /min/mg microsomal or S9 protein | –
CCCCNC(=O)NS(=O)(=O)c1ccc(C)cc1 [tolbutamide] | – | – | – | – | – | – | – | – | – | – | – | – | Predicted clearance, lower in Chinese than in Caucasian subjects ([3]; route not stated): 25%; Experimentally observed clearance, lower in Chinese individuals than in Caucasian volunteers ([4]; route not stated): 2%
Cc1nnc2n1-c1ccc(Cl)cc1C(c1ccccc1)=NC2 [alprazolam] | – | – | – | – | – | – | – | – | – | – | – | – | Predicted clearance, lower in Chinese than in Caucasian subjects ([3]; intravenous): 21%; Predicted clearance, lower in Chinese than in Caucasian subjects ([3]; oral): 22%; Experimentally observed clearance, lower in Chinese individuals than in Caucasian volunteers ([4]; intravenous): 20%; Experimentally observed clearance, lower in Chinese individuals than in Caucasian volunteers ([4]; oral): 21%
COc1ccc(CC2CO2)cc1 (stereo not drawn) [Estragole-2′,3′-oxide] | 5.5 | 0.9 | 2.6 µL/min/mg microsomal or S9 protein | 161 ± 17 | 0.42 ± 0.01 nmol /min/mg microsomal or S9 protein | 4.9 | 4.4 | 26.6 | 3.9 | 12.7 µL/min/mg microsomal or S9 protein | 146 ± 15 | 1.85 ± 0.06 nmol /min/mg microsomal or S9 protein | V max, lower in Chinese than in Caucasian liver incubations ([1]; scaled kinetic constants (Table 3), conversion of estragole): fourfold; Scaled catalytic efficiency, lower for Chinese than Caucasian liver microsomes ([1]; scaled to liver, conversion of estragole): fivefold
COc1ccc(/C=C/CO)cc1 [3′-Hydroxyanethole] | 1.5 | 0.7 | 0.71 µL/min/mg microsomal or S9 protein | 450 ± 219 | 0.32 ± 0.07 nmol /min/mg microsomal or S9 protein | 3.2 | 3.1 | 4.8 | 2.1 | 2.3 µL/min/mg microsomal or S9 protein | 429 ± 80 | 0.99 ± 0.08 nmol /min/mg microsomal or S9 protein | –
Cc1ncc2n1-c1ccc(Cl)cc1C(c1ccccc1F)=NC2 [midazolam] | – | – | – | – | – | – | – | – | – | – | – | – | Predicted clearance, lower in Chinese than in Caucasian subjects ([3]; intravenous): 24%; Predicted clearance, lower in Chinese than in Caucasian subjects ([3]; oral): 17%; Experimentally observed clearance, lower in Chinese individuals than in Caucasian volunteers ([4]; intravenous): 19%; Experimentally observed clearance, lower in Chinese individuals than in Caucasian volunteers ([4]; oral): 62%
C=CC(=O)c1ccc(OC)cc1 [1′-Oxoestragole] | – | – | – | – | – | – | – | – | – | – | – | – | Catalytic efficiency (V max/K m × 1000) [5, 7]: 4.5 µL/min/mg microsomal or S9 protein; K m [5, 7]: 403 ± 137 µM; V max [5, 7]: 1.82 ± 0.28 nmol /min/mg microsomal or S9 protein; K m [5, 8]: 403 µM; V max [5, 8]: 1.82 nmol /min/mg microsomal or S9; Catalytic efficiencies for formation of 1′-oxoestragole, Chinese versus Caucasian ([5]; in vitro, oxidation of 1′-hydroxyestragole, liver S9): similar; Scaled V max ([5]; oxidation of 1′-hydroxyestragole, Chinese, S9 protein yield 143 mg/(g tissue)): 15.6 µmol/h/g liver; Catalytic efficiency (scaled V max / K m) ([5]; oxidation of 1′-hydroxyestragole, Chinese, scaled to liver): 38.7 µL/h/g liver; Scaled catalytic efficiencies for formation of 1′-oxoestragole, Chinese versus Caucasian ([5]; scaled to liver, oxidation of 1′-hydroxyestragole): similar; Catalytic efficiency (V max/K m × 1000) [6, 9]: 5.4 µL/min/mg microsomal or S9 protein; K m [6, 9]: 521 ± 265 µM; V max [6, 9]: 2.8 ± 0.70 nmol /min/mg microsomal or S9 protein; K m [6, 10]: 521 µM; V max [6, 10]: 2.8 nmol /min/mg microsomal or S9; Scaled V max ([6]; oxidation of 1′-hydroxyestragole, Caucasian, S9 protein yield 143 mg/(g tissue)): 24.0 µmol/h/g liver; Catalytic efficiency (scaled V max / K m) ([6]; oxidation of 1′-hydroxyestragole, Caucasian, scaled to liver): 46.1 µL/h/g liver
COc1ccc2[nH]c([S+]([O-])Cc3ncc(C)c(OC)c3C)nc2c1 (stereo not drawn) [omeprazole] | – | – | – | – | – | – | – | – | – | – | – | – | Predicted clearance, lower in Chinese than in Caucasian subjects ([3]; route not stated): 51%; Experimentally observed clearance, lower in Chinese individuals than in Caucasian volunteers ([4]; route not stated): 75%
